Experimental data as given in patent US5817776A, “Amino acid analogs for tumor imaging” (priority 1996, dated 1998).

What was measured:
[1] = tested on: normal tissue; conditions: in vivo; cited from earlier work
[2] = tested on: N-methyl-D-aspartic acid (NMDA) receptor, strychnine-insensitive glycine recognition site; conditions: cited from earlier work
[3] = tested on: several tumor types; conditions: labeled with carbon-14 or carbon-11, animals, Washburn et al. 1979; cited from earlier work
[4] = tested on: metastatic lesions in the brain; conditions: cited from earlier work
[5] = tested on: human astrocyte tumor cells; assay: Binding to human astrocyte tumor cells in a human patient; assay type: in vivo
[6] = in vivo; conditions: rat, in vivo, iv, Mean % Injected Dose/Gram
Experimental: (§1) In vivo distribution of a compound of the invention, [^18 F]-1-amino-3-fluoro-cyclobutane-1-carboxylic acid (FACBC) was measured in rats having an implanted gliosarcoma. Accumulation in various tissue was measured at 5 min and 60 min post-administration.
(§2) Distribution of Radioactivity in Tissues of Unfasted Male
(§3) Fisher Rats following Intravenous Administration of [^18 F]FACBC

[7] = tested on: implanted gliosarcoma; assay: in vivo; conditions: for Bone, Mean % Injected Dose/Gram: unfasted male fisher rats, average of 4 rats
Experimental: as §1, §2, §3

[8] = 60 min, intravenous, male fisher rats with implanted gliosarcoma

CSCC[C@H](N)C(=O)O [[^11 C] methionine, methionine]
uptake in normal tissue (in words) [1]: relatively high uptake in normal tissue

NC1(C(=O)O)CCC1 [ACBC, 1-aminocyclobutanecarboxylic acid]
NMDA receptor ligand and antagonist activity (in words) [2]: selective and potent ligand and antagonist
incorporation by tumors (in words) [3]: incorporated preferentially by several tumor types in animals
substrate for protein synthesis in metastatic lesions; normal brain uptake (in words) [4]: selective substrate for protein synthesis in metastatic lesions in the brain with little observable uptake in normal brain tissue

NC1(C(=O)O)CC([18F])C1 (stereo not shown) [[^18 F]FACBC, [^18 F]-1-amino-3-fluorocyclobutane-1-carboxylic acid]
binding to human astrocyte tumor cells (in words) [5]: highly specific binding to human astrocyte tumor cells
tissue uptake at 5 min ([6]; Blood, 5 min, unfasted male fisher rats, average of 4 rats): 0.58 %ID/g
tissue uptake at 1 h ([6]; Blood, 60 min, unfasted male fisher rats, average of 4 rats): 0.32 %ID/g
tissue uptake at 5 min ([6]; Bone, 5 min, unfasted male fisher rats, average of 4 rats): 0.52 %ID/g
tissue uptake at 1 h ([6]; Bone, 60 min, unfasted male fisher rats, average of 4 rats): 0.38 %ID/g
tissue uptake at 5 min ([6]; Brain (B)): 0.11 %ID/g
tissue uptake at 1 h ([6]; Brain (B)): 0.26 %ID/g
tissue uptake at 5 min ([6]; Heart): 0.7 %ID/g
tissue uptake at 1 h ([6]; Heart): 0.56 %ID/g
tissue uptake at 5 min ([6]; Kidney): 1.08 %ID/g
tissue uptake at 1 h ([6]; Kidney): 0.6 %ID/g
tissue uptake at 5 min ([6]; Liver): 1.1 %ID/g
tissue uptake at 1 h ([6]; Liver): 1.7 %ID/g
tissue uptake at 5 min ([6]; Lung): 1.13 %ID/g
tissue uptake at 1 h ([6]; Lung): 0.64 %ID/g
tissue uptake at 5 min ([6]; Muscle): 0.27 %ID/g
tissue uptake at 1 h ([6]; Muscle): 0.41 %ID/g
tissue uptake at 5 min ([6]; Spleen): 1.55 %ID/g
tissue uptake at 1 h ([6]; Spleen): 0.68 %ID/g
tissue uptake at 5 min ([6]; Testis): 0.25 %ID/g
tissue uptake at 1 h ([6]; Testis): 0.28 %ID/g
tissue uptake at 5 min ([6]; Tumor (T), 5 min, male fisher rats with implanted gliosarcoma): 0.61 %ID/g
tissue uptake at 1 h ([6]; Tumor (T), 60 min, male fisher rats with implanted gliosarcoma): 1.72 %ID/g
T/B (tumor to brain ratio) ([7]; 5 min, intravenous, male fisher rats with implanted gliosarcoma): 5.58
Bone, Mean % Injected Dose/Gram ([7]; 5 min, intravenous): 0.52 % Injected Dose/Gram
T/B (tumor to brain ratio) [7, 8]: 6.6
Tumor (T), Mean % Injected Dose/Gram [7, 8]: 1.72 % Injected Dose/Gram
Bone, Mean % Injected Dose/Gram ([7]; 60 min, intravenous): 0.38 % Injected Dose/Gram
T/B (tumor to brain ratio) ([7]; rat, in vivo, iv): 6.61
stability to in vivo defluorination (bone uptake) ([7]; rat, in vivo, iv): Uptake by bone was essentially constant over the 60 minutes of exposure, indicating stability of the 2-cyclobutyl group to significant in vivo defluorination
tumor uptake / tumor to brain discrimination (in words) ([7]; rat, in vivo, iv): preferentially associated with tumor tissue as early as 5 minutes post administration
Brain (B), Mean % Injected Dose/Gram ([7]; rat, in vivo, iv, 5 min): 0.11 % Injected Dose/Gram
Brain (B), Mean % Injected Dose/Gram ([7]; rat, in vivo, iv, 1 h): 0.26 % Injected Dose/Gram
